{"source": "patent US20090298947A1", "about": "“POLYMORPHIC AND AMORPHOUS FORMS OF […] AMORPHOUS COMPOSITIONS” (PLIVA HRVATSKA D.O.O., priority 2008, published 2009)", "key": {"[1]": {"experiment": "Interconversion of form II to form I in stirred suspension, crystal form determined using XRPD", "assay_type": "physicochemical", "procedure": "Samples after being powdered in a mortar and pestle are applied directly on silicon plate holder. The X-ray powder diffraction pattern was measured with Philips X'Pert PRO X-ray powder diffractometer, equipped with Cu irradiation source=1.54060 ? ( ? ngstrom), X'C.elerator (2.022° 2Θ) detector. Scanning parameters: angle range: 3-40 deg., step size 0.0167, time per step 100 s, continuous scan. The accuracy of peak positions was defined as ±0.2 degrees due to experimental differences like instrumentations and sample preparations.\n(§1) 27.0 g of Lacosamide was dissolved in 300 ml of ethyl acetate. Solution crystallized by cooling at about 42° C. Suspension was cooled to 40° C. and samples were taken in time intervals, filtered and crystal form was determined using XRPD. […] Crystals were filtered, washed with ethyl acetate and dried at 50° C./vacuo yielding 20.0 g Lacosamide form I.\nas §1, with “30.0” for “27.0”, “239” for “300”, “acetate and 1 ml of water.” for “acetate.”, “46°” for “42°”, “with cold” for “with”, “22.9” for “20.0”"}, "[2]": {"experiment": "Temperature dependent X-ray powder diffraction, heating of form II", "assay_type": "physicochemical", "procedure": "Temperature dependent X-ray powder diffraction (TDXD) was carried out with a Bruker AXS D8 θ-θ powder diffractometer with parafocusing Bragg-Brentano geometry using CuKα radiation (λ=1.5418 Å, U=34 kV, I=20 mA). The sample was placed on a Pt/Rh ribbon in a MRI high-temperature oven-camera and VPSlits were used to fix the constant irradiated length (20 mm). Data were scanned with an ultrafast detector LynxEye over the angular range 3-38° (2θ) with a step size of 0.0196° (2θ) and a counting time of 58.6 s step^−1. The heating and cooling process was controlled by Eurotherm 2404.\nThe sample of form II lacosamide (50 mg) was placed on a Pt/Rh ribbon in a MRI high-temperature oven-camera, and heated at rate of 10° C./min up to 100° C. The heating and cooling process was controlled by Eurotherm 2404."}}, "data": [{"smiles": "COC[C@@H](NC(C)=O)C(=O)NCc1ccccc1", "note": "[Lacosamide, (R)-N-benzyl-2-acetamido-3-methoxypropionamide]", "values": [{"measurement": "crystal form determined using XRPD", "setting": "[1]; suspension in ethyl acetate and water (239 ml/1 ml), after 2 hours at 40° C.", "value": "form I"}, {"measurement": "crystal form determined using XRPD", "setting": "[1]; suspension in ethyl acetate and water (239 ml/1 ml), sample taken immediately when temperature reached 40° C.", "value": "mixture of form I and form II"}, {"measurement": "crystal form determined using XRPD", "setting": "[1]; suspension in ethyl acetate, after 2 hours at 40° C.", "value": "mixture of form I and form II"}, {"measurement": "crystal form determined using XRPD", "setting": "[1]; suspension in ethyl acetate, after 4 hours at 40° C.", "value": "form I"}, {"measurement": "crystal form determined using XRPD", "setting": "[1]; suspension in ethyl acetate, sample taken immediately when temperature reached 40° C.", "value": "form II"}]}, {"smiles": "COC[C@@H](NC(C)=O)C(=O)NCc1ccccc1", "note": "[form II lacosamide, (R)-N-benzyl-2-acetamido-3-methoxypropionamide]", "values": [{"measurement": "temperature of transformation of form II to form III", "setting": "[2]; heated at 10° C./min up to 100° C.", "value": "around 80 °C"}, {"measurement": "reversibility of transformation of form II to form III", "setting": "[2]; sample cooled back to room temperature", "value": "completely reversible"}]}]}
